# Assay results: patent publication US9725430B2, “Use of small molecule inhibitors targeting EYA tyrosine phosphatase” (Children's Hospital Medical Center, priority 2013, dated 2017)
# Tests used:
# [1] = tested on: HUVECs; assay: HUVEC tubulogenesis on Matrigel; assay type: cell-based, human; details: for tube formation on Matrigel: HUVEC
# Source text: Primary endothelial cells (ECs) on basement membrane rapidly attach, align themselves and form capillary-like tubules with lumens and tight cell-cell contacts. […] To better understand the stage in matrigel tube-formation affected by compound 1g cells plated on growth-factor reduced matrigel and treated with either vehicle or compound 1g were followed. Differences become apparent within the first two hours and were clearly visible at the 6-hour time-point. The ECs are much less organized in the presence of compound 1g. […] The effect of compound 1g on tube formation was attenuated in the presence of high concentrations of fetal bovine serum (FBS), likely reflecting non-specific protein binding.
# The EYA inhibitors were also tested in tubulogenesis assays. The tubulogenesis assays were performed in 15-well micro-slide (ibidi LLC, Verona Wis.), using growth factor-reduced matrigel (BD Bioscience, Billerica, Mass.). The matrix was prepared by loading 10 μl of matrigel in each micro-slide well and allowing it to solidify for 30 minutes at 37° C. HUVECs were trypsinized and resuspended at 100.000 cell/ml in EBM+2.5% FBS. 50 μl (5,000 cell) were loaded on top of the solidified matrigel and the preparation was incubated for 20 hours at 37° C. in a humidified incubator in a 5% CO2 atmosphere. Bright field images were taken using an inverted microscope at 2.5× magnification, which allowed imaging of the whole well in two pictures that were later merged in Photoshop. Tubular structures were traced and counted using NeuroJ (NIH, USA). In experiments with inhibitor, the inhibitor was added to the cell suspension before loading. Each sample was loaded in triplicate, and each treatment was repeated for reproducibility.
# [2] = biological target: EYA3-SIX2 interaction (Homo sapiens (Human), UniProt Q99504); assay: His-SIX2 pull-down of EYA3 on Ni-NTA; assay type: binding; details: 50 μM compound, 15 minutes
# Source text: Each point represents the mean and standard deviation of two independent readings. (C) Plots of Vmax and Km as a function of inhibitor concentration. […] The mixture was loaded on a Ni-NTA column. Beads were washed with 3 column volumes of load buffer (last washes, lanes 2 and 6). Proteins retained on the beads are shown in lanes 3 and 7. Lanes 4 and 8 are molecular weight markers.
# One function of the catalytic domain of the EYAs is to mediate its interaction with the SIX proteins. This complex then translocates to the nucleus where the SIX-EYA complex can activate transcription.
# [3] = tested on: A673 (Ewings sarcoma) cells; assay: Mouse xenograft model of Ewings sarcoma; assay type: in vivo, nude mice; details: intra-peritoneal 25 mg/kg/day or intra-tumor
# Procedure: The affect of EYA inhibitors on a mouse xenograft model of Ewings sarcoma was tested. 5×10^6 A673 (Ewings sarcoma) cells in 0.1 ml sterile matrigel were injected subcutaneously into the dorsal flank region of nude mice. Approximately 5 days after injection, the tumors were about 100-300 mm^3. […] The dose for intra-peritoneal injections was 25 mg/kg/day. The tumor size was monitored every other day. Animals were sacrificed after 2 weeks, or when tumor volume approached 10% of animal weight.
# [4] = biological target: PTP1B (Homo sapiens (Human), UniProt P18031); assay: PTP1B-catalyzed pNPP hydrolysis; assay type: biochemical; details: for IC50: pNPP substrate
# Procedure: The catalytic domain of human Eya2 (“hEYA2(ED)”) was similarly sub-cloned as a polyhistidine fusion construct in the vector pDEST-527. Fusion protein was purified by NiNTA chromatography and followed by size-exclusion chromatography over a Superdex-75 column. The relative purity of protein samples was determined using SDS-PAGE. PTP1B was purified as described previously (Rayapureddi, J. P. et al. Nature 426, 295-298 (2003), incorporated by reference in its entirety).
# (§1) An inhibitory assay was conducted using the previously described p-nitrophenylphosphate assay (Rayapureddi, J. P. et al. Nature 426, 295-298 (2003)). Briefly, ED was incubated in a reaction mixture containing 20 mM MES pH 6, 2 mM MgCl2, 125 μM inhibitor, 3.4 mM para-nitrophenol phosphate (pNPP) and 0.01 μg/μL enzyme.
# PTP1B is a classical Cys-based tyrosine phosphatase.
# [5] = biological target: Eya3(ED) (Mus musculus (Mouse), UniProt P97480); assay: p-nitrophenylphosphate (pNPP) assay, catalytic domain of Eya3; assay type: biochemical; details: pNPP substrate
# Source text: The catalytic domain of mouse Eya3 (“ED”, comprising residues 223-510 of Eya3) was purified as described by Rayapureddi, J. P. et al. (FEBS Lett 580, 3853-3859 (2006), incorporated by reference in its entirety). For full-length Eya3 (“hEYA3”), human Eya3 isoform 2 (representing the major species identified in human cell lines by mass spectrometry, expressed as residues 127-573 of NM_001990, isoform 1) was sub-cloned into pDEST565 to express a poly-histidine-Glutathione-S-transferase (His-GST) tagged fusion protein with a TVMV protease site. The protein was purified by glutathione-S-transferase affinity chromatography followed by TVMV cleavage, Ni-NTA chromatography, and finally size exclusion chromatography.
# as §1
# The compounds were then tested using full-length human recombinant, purified EYA3 and pNPP as a substrate. Compounds were dissolved in DMSO and diluted as needed. […] Reactions were incubated at 30° C. for 30 minutes and quenched with 100 mM EDTA pH 10. IC50 values were then calculated directly from regression curves using PRISM software. […]
# [6] = tested on: retinal vasculature; assay: Post-natal retinal angiogenesis in mice; assay type: in vivo
# Procedure: Next, retinal blood vessel density and angiogenic extension were studied using induced deletion of Eya3 in mice by PDGFB-icreERT2 starting at the day of birth. Isolectin labeled retinal blood vessels at postnatal day 5 in control Eya3fl/fl (FIGS. 8b and 8d) and experimental Eya3fl/fl; PDGFB-icreERT2 (FIGS. […]) mice. FIGS. 8d and 8e are magnified images of the regions indicated in 8b and 8c, respectively.
# Next, treatment with an inhibitor of Eya3 was performed to test the effect on post-natal retinal angiogenesis. Briefly, 100 μM of compound 1a was injected into the eyes of post-natal mice, at P0.5 and P3. P5 retinas were then analyzed for effects on the retinal vasculature.
# Chain of PTP1B (P18031 whole entry, species assumed, the tested form may be a part): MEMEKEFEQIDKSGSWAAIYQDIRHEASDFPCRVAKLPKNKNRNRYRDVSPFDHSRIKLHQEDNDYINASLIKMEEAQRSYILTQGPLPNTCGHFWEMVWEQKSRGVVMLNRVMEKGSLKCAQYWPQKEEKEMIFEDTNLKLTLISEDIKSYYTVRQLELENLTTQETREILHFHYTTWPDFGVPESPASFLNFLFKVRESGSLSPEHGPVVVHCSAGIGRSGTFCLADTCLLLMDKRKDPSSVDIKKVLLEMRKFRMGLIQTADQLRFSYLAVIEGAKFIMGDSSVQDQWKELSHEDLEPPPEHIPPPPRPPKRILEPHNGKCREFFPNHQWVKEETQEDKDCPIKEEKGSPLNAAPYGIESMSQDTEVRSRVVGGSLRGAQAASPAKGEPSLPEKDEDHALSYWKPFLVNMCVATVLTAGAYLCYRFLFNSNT
# Chain of EYA3-SIX2 interaction (Q99504 whole entry, looked up): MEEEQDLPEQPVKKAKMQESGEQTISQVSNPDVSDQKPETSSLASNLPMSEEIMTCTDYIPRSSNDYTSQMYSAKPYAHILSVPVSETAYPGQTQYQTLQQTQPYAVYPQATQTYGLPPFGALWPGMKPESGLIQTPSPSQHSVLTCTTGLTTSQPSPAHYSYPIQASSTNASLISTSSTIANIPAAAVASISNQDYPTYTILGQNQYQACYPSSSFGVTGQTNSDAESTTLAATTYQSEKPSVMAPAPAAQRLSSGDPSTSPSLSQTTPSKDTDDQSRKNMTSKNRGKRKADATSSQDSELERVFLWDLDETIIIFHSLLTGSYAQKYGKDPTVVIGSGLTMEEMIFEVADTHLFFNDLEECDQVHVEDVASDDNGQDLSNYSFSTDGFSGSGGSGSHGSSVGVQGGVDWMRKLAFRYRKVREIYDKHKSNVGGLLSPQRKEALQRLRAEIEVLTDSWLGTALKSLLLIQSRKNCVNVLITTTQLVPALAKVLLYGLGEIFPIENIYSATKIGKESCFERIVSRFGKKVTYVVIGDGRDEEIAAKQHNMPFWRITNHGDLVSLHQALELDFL
# Chain of EYA3-SIX2 interaction (Q9NPC8 whole entry partner, looked up): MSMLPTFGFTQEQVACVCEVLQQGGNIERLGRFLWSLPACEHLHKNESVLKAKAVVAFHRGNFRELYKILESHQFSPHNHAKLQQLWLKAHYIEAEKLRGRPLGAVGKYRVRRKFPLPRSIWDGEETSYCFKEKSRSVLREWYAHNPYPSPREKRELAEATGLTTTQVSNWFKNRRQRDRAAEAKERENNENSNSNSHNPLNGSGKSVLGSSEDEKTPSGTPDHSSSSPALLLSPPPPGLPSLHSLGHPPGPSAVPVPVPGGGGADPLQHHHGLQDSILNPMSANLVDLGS
# Chain of Eya3(ED) (P97480 223-510): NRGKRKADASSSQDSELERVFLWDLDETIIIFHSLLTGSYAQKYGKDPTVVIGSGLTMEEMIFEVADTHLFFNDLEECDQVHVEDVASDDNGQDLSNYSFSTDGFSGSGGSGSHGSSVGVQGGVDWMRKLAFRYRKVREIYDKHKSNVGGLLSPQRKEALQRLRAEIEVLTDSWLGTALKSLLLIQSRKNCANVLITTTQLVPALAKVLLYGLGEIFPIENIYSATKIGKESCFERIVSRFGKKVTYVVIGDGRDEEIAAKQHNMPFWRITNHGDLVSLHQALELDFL
EYA3-SIX2 interaction in presence of inhibitor [2],IC50 [4] [µM],IC50 [5] [µM],fold greater activity towards EYA3 than PTP1B ([4]; EYA3 vs PTP1B),SMILES,tubulogenesis inhibition ([1]; 7.5 μM),tube formation on Matrigel [1],tumor growth [3],"retinal vasculature branch points ([6]; 100 μM injected into eyes at P0.5 and P3, P5 retinas)",retinal angiogenesis in VEC-specific Eya3 knockout model ([6]; normal oxygen conditions)
unaffected,53.8,–,–,"CCc1oc2ccccc2c1C(=O)c1cc(Br)c(O)c(Br)c1 [Compound 1, Benzbromarone, reference compound]",effective at the highest concentrations tested,inhibit EYA3 protein in cell migration and tubulogenesis,able to reduce tumor growth,–,–
–,> 150,19.2,over 100 fold,CCc1oc2ccccc2c1C(=O)c1ccc(O)cc1 [Compound 1a],–,inhibit EYA3 protein in cell migration and tubulogenesis,–,quantifiable decrease in branch points,additional significant reduction in retinal angiogenesis
